The results in this text go back to ChEMBL document CHEMBL1134755, “B-ring substituted 5,7-dihydroxyflavonols with high-affinity binding to P-glycoprotein responsible for cell multidrug resistance” (Bioorg Med Chem Lett, 2001).

Data set [1] has as its target T1, ATP-dependent translocase ABCB1 (Mus musculus, UniProt P21447). The experiment in a line: Binding affinity to nucleotide-binding domain (NBD2) of P-Glycoprotein.
Data set [2] has as its target T1, ATP-dependent translocase ABCB1. The experiment in a line: Percent of maximal quenching fluorescence for binding analysis to nucleotide-binding domain (NBD2) of P-Glycoprotein was determined.

T1 sequence (P21447 whole entry, the tested form may be a part): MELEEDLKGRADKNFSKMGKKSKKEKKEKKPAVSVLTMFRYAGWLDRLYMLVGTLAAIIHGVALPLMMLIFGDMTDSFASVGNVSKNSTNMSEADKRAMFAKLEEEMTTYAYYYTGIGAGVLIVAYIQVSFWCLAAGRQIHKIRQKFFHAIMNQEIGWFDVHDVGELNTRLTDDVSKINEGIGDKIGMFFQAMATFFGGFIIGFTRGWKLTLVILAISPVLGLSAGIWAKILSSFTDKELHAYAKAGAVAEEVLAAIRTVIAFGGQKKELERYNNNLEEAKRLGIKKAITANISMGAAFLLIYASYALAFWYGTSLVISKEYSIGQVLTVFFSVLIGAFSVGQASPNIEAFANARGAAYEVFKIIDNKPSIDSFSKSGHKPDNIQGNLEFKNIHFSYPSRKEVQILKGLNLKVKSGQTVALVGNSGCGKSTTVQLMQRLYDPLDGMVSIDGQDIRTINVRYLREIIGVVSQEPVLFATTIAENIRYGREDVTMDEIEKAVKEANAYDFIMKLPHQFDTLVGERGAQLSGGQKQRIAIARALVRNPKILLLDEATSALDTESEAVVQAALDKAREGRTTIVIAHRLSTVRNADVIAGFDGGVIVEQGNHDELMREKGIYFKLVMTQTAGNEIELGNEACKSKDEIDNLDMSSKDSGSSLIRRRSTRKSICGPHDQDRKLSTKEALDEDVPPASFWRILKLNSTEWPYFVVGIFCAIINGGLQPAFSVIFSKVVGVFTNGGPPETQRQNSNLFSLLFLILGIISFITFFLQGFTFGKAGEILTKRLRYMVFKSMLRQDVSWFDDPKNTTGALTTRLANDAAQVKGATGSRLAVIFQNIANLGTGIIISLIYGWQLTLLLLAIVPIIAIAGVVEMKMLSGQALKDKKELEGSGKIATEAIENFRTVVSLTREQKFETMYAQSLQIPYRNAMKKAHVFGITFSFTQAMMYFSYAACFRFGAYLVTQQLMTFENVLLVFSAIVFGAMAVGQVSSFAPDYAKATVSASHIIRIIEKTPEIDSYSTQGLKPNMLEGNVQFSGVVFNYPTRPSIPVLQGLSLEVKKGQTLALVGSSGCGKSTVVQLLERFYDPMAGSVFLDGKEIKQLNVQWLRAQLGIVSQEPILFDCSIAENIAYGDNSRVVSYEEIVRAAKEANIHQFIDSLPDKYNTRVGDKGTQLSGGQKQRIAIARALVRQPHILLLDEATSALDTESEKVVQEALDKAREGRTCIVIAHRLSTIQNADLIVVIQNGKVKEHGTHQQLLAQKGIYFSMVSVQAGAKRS

Take `O=c1c(O)c(-c2ccc(C(c3ccccc3)c3ccccc3)cc2)oc2cc(O)cc(O)c12`: the Kd in data set [1] came out at 2 µM. In addition, in data set [2], the “Delta Fmax” value worked out at 84.6%.
In turn, `CCCCCCCCc1ccc(-c2oc3cc(O)cc(O)c3c(=O)c2O)cc1` came in with a Kd in data set [1] of 0.057 µM. Moreover, in data set [2], the “Delta Fmax” value is reported as 62.1%.
Regarding `O=c1c(O)c(-c2ccc(Cl)cc2Cl)oc2cc(O)cc(O)c12`, binding in data set [1] was characterised by a dissociation constant (Kd) of 4 µM. Besides, the “Delta Fmax” value in data set [2] is listed as 85.3%.
For `O=c1c(O)c(-c2ccc(F)cc2)oc2cc(O)cc(O)c12` the same measures were 6.8 µM and 91.6%.
`O=c1c(O)c(-c2ccc(I)cc2)oc2cc(O)cc(O)c12` had a Kd in data set [1] of 1.06 µM. In data set [2], the “Delta Fmax” value came to 95.5%.
For `O=c1c(O)c(-c2ccccc2)oc2cc(O)cc(O)c12` [GALANGIN] the same measures were 5.9 µM and 95%.
For `COc1ccc(-c2oc3cc(O)cc(O)c3c(=O)c2O)cc1` [KAEMPFERIDE] the same measures were 5 µM and 96.7%.
For `O=c1c(O)c(-c2ccc(O)cc2)oc2cc(O)cc(O)c12` [KAEMPFEROL] the same measures were 6.7 µM and 97.6%.

What is called Kd is a measure of binding affinity in units of concentration. Low readings indicate higher affinity, high ones lower affinity.
